Holding throughout (settings): incubation time: 72 h
The subject of one assay is HCC1143. Put plainly: normalised response (% of control), CellTox Green; higher = less cell death (100 = DMSO, 0 = benzethonium chloride kill control). In outline: (§1)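 Each entry is the normalised signal at a single concentration within a series. The series comprised 5 concentrations in 10-fold steps over a compound-specific 10,000-fold range, placed in 384-well plates into which breast cancer cell lines were seeded as 20 µl suspension and incubated 72 h. CellTox Green (485/520 nm) fluorescence and then CellTiter-Glo luminescence were read, with signals normalised per plate to 0.1 % DMSO (100) and a positive kill control (0).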

For another assay, the system named is MDA-MB-468. Described as above. Summed up: as §1
The test system of the next assay is MDA-MB-231. The assay is described as above. In outline: as §1
The test system of assay [1] is MFM-223. Described as above. Summed up:
as §1

Assay [2] has as its system MCF-10A. Described as above. In outline:
as §1

Assay [3] deals with BT-474. The assay is described as above. In outline:
as §1

A further assay relates to HCC1599. The assay is described as above. Summed up: as §1
A further assay concerns BT-549. Described as above. In outline: as §1
The test system of assay [4] is CAL-85-1. The assay is described as above. In outline:
as §1

In the next assay the test system is HCC1937. The assay is described as above. In outline: as §1
Assay [5] deals with MDA-MB-436. The assay is described as above. In outline: as §1
Assay [6] relates to HDQ-P1. Described as above. In outline: as §1
The subject of another assay is DU-4475. The description is as above. In outline: as §1
The test system of a further assay is CAL-51. Described as above. In outline: as §1
In assay [7] the test system is CAL-148. The assay is described as above. Summed up:
as §1

A further assay deals with MDA-MB-453. Described as above. In outline:
as §1

Another assay has as its system Hs578T. The assay is described as above. In outline: as §1
In a further assay the test system is CAL-120. The assay is described as above. In outline: as §1
In assay [8] the test system is MFM-223. Description: drug sensitivity score (DSS), CellTox Green (DSS (AUC-based score)); higher = stronger drug effect (viability inhibition or cytotoxicity); extreme values may be limits of the assay. Summed up:
(§2)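 A drug sensitivity score was derived from the area under each fitted dose-response curve. Breast cancer cells (20 µl suspension) were seeded onto compound in 384-well plates, using 5 concentrations 10-fold apart over a compound-specific 10,000-fold range, and incubated 72 h. Readouts were CellTox Green fluorescence and then CellTiter-Glo luminescence, with every plate normalised to 0.1 % DMSO and a positive kill control.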

For assay [9], the system named is MCF-10A. The description is as above. In outline:
as §2

Assay [10] has as its system BT-474. The description is as above. Summed up: as §2
For assay [11], the system named is CAL-85-1. The description is as above. In outline: as §2
Assay [12] concerns MDA-MB-436. The description is as above. Summed up:
as §2

The test system of assay [13] is HDQ-P1. The assay is described as above. Summed up: as §2
The subject of assay [14] is CAL-148. Described as above. In outline: as §2

For the compound `C=CCNC1=C2C[C@@H](C)C[C@H](OC)[C@H](O)[C@@H](C)/C=C(\C)[C@H](OC(N)=O)[C@@H](OC)/C=C\C=C(/C)C(=O)NC(=CC1=O)C2=O` [Tanespimycin] (1000 nM), the normalised response in the assay with HCC1143 came to 91.2%; with MDA-MB-468 it was 121%; with MDA-MB-231 it was 36.8%; in the assay on MFM-223 [1] it was 98.9%; with MCF-10A [2], 31.3%; with BT-474 [3], 76.9%. Further, the normalised response with HCC1599 worked out at 95.6%; in the assay on BT-549, 99.8%; in the assay on CAL-85-1 [4], 68.2%; in the assay on HCC1937 it was 120%; in the assay with MDA-MB-436 [5], 24.3%; in the assay with HDQ-P1 [6] it was 60.1%. The normalised response worked out at 62.4% with DU-4475; 48.8% in the assay on CAL-51; 28.2% in the assay on CAL-148 [7]; 93.3% in the assay with MDA-MB-453; 98.9% with Hs578T; 94.5% with CAL-120.

As to `C=CCNC1=C2C[C@@H](C)C[C@H](OC)[C@H](O)[C@@H](C)/C=C(\C)[C@H](OC(N)=O)[C@@H](OC)/C=C\C=C(/C)C(=O)NC(=CC1=O)C2=O` [Tanespimycin] (10000 nM), the normalised response in the assay with HCC1143 turned out to be 52.5%; in the assay with MDA-MB-468, 100%; with MDA-MB-231, 15.4%; in the assay on MFM-223 [1] it was 86%; in the assay on MCF-10A [2], 39.1%; with BT-474 [3] it was 62.6%. In addition, the normalised response in the assay with HCC1599 is 108%; in the assay with BT-549, 109%; in the assay on CAL-85-1 [4], 75.6%; in the assay on HCC1937 it was 102%; with MDA-MB-436 [5], 99.4%; with HDQ-P1 [6], 55.1%. Also, the normalised response turned out to be 69% in the assay on DU-4475; 58.7% in the assay with CAL-51; 39.8% in the assay with CAL-148 [7]; 87.4% with MDA-MB-453; 61.2% in the assay with Hs578T; 84.2% with CAL-120.

`CO[C@H]1C[C@@H]2CC[C@@H](C)[C@@](O)(O2)C(=O)C(=O)N2CCCC[C@H]2C(=O)O[C@H]([C@H](C)C[C@@H]2CC[C@@H](OC(=O)C(C)(CO)CO)[C@H](OC)C2)CC(=O)[C@H](C)/C=C(\C)[C@@H](O)[C@@H](OC)C(=O)[C@H](C)C[C@H](C)/C=C/C=C/C=C/1C` [Temsirolimus] (100 nM): the normalised response in the assay on HCC1143 worked out at 130%; in the assay on MDA-MB-468, 149%; in the assay on MDA-MB-231, 123%; in the assay on MFM-223 [1], 90.9%; with MCF-10A [2], 91.2%; with BT-474 [3], 91.2%. In addition, the normalised response in the assay on HCC1599 amounted to 106%; in the assay with BT-549, 130%; in the assay on CAL-85-1 [4], 80%; in the assay on HCC1937, 110%; in the assay with MDA-MB-436 [5], 97.1%; in the assay with HDQ-P1 [6] it was 109%. Moreover, the normalised response was 98.8% with DU-4475; 103% in the assay on CAL-51; 87.2% in the assay with CAL-148 [7]; 107% with MDA-MB-453; -18.9% in the assay on Hs578T; 102% with CAL-120.

In the case of `O=C(c1ccc(C(=O)N2CCC(N3CCCC3)CC2)c(Nc2ccccc2)c1)N1CCC(N2CCCC2)CC1` [UNC1215], the drug sensitivity score with MFM-223 [8], with MCF-10A [9], with BT-474 [10], in the assay with CAL-85-1 [11], with MDA-MB-436 [12] and in the assay with HDQ-P1 [13] was 0 throughout. The compound also had a drug sensitivity score with CAL-148 [14] of 0.

Regarding `C[C@]1(c2nc3c(C(N)=O)cccc3[nH]2)CCCN1` [Veliparib] (1000 nM), the normalised response worked out at 64.8% with HCC1143; 139% in the assay with MDA-MB-468; 116% in the assay with MDA-MB-231; 98.1% with MFM-223 [1]; 106% in the assay on MCF-10A [2]; 103% in the assay on BT-474 [3]. Moreover, the normalised response came out at 105% in the assay on HCC1599; 129% in the assay on BT-549; 90% with CAL-85-1 [4]; 120% in the assay on HCC1937; 91.3% in the assay with MDA-MB-436 [5]; 99% with HDQ-P1 [6]. Further, the normalised response with DU-4475 was found to be 99%; with CAL-51 it was 100%; in the assay on CAL-148 [7], 105%; with MDA-MB-453, 106%; in the assay with Hs578T it was 91.6%; in the assay with CAL-120, 102%.

In the case of `CC[C@]1(O)C[C@@H]2CN(CCc3c([nH]c4ccccc34)[C@@](C(=O)OC)(c3cc4c(cc3OC)N(C)[C@H]3[C@@](O)(C(=O)OC)[C@H](OC(C)=O)[C@]5(CC)C=CCN6CC[C@]43[C@@H]65)C2)C1` [Vinblastine] (100 nM), the normalised response turned out to be 56.7% in the assay with HCC1143; 19.1% in the assay on MDA-MB-468; 28.5% with MDA-MB-231; 54.7% with MFM-223 [1]; 46% with MCF-10A [2]; 67.5% with BT-474 [3]. Moreover, the normalised response in the assay on HCC1599 is 78.4%; in the assay on BT-549, 66.2%; in the assay on CAL-85-1 [4], 61.1%; in the assay with HCC1937, -65.7%; in the assay on MDA-MB-436 [5] it was 88.4%; with HDQ-P1 [6], 96.8%. Also, the normalised response was 93.8% with DU-4475; 32.1% in the assay with CAL-51; 75.2% in the assay on CAL-148 [7]; 103% with MDA-MB-453; -12.8% in the assay on Hs578T; 88.2% in the assay with CAL-120.

`CC[C@]1(O)C[C@@H]2CN(CCc3c([nH]c4ccccc34)[C@@](C(=O)OC)(c3cc4c(cc3OC)N(C)[C@H]3[C@@](O)(C(=O)OC)[C@H](OC(C)=O)[C@]5(CC)C=CCN6CC[C@]43[C@@H]65)C2)C1` [Vinblastine] (1000 nM): the normalised response is 34.2% with HCC1143; 70.2% in the assay with MDA-MB-468; 19.5% with MDA-MB-231; 51.2% in the assay with MFM-223 [1]; 50.5% with MCF-10A [2]; 75.3% in the assay with BT-474 [3]. Besides, the normalised response in the assay with HCC1599 came to 75.5%; with BT-549, 61.4%; with CAL-85-1 [4], 85.4%; in the assay with HCC1937, 92.1%; in the assay with MDA-MB-436 [5] it was 83.1%; with HDQ-P1 [6], 101%. Also, the normalised response in the assay with DU-4475 was 95.5%; in the assay with CAL-51, 20.7%; in the assay with CAL-148 [7], 89.4%; in the assay on MDA-MB-453 it was 96.5%; in the assay with Hs578T, -39.7%; in the assay on CAL-120, 89.8%.

In the case of `CS(=O)(=O)c1ccc(C(=O)Nc2ccc(Cl)c(-c3ccccn3)c2)c(Cl)c1` [Vismodegib] (10000 nM), the normalised response in the assay with HCC1143 turned out to be 76.7%; in the assay on MDA-MB-468 it was 226%; in the assay on MDA-MB-231, 94.1%; in the assay on MFM-223 [1] it was 98%; in the assay with MCF-10A [2], 85.5%; in the assay on BT-474 [3] it was 102%. In addition, the normalised response with HCC1599 worked out at 98.8%; in the assay with BT-549 it was 119%; in the assay on CAL-85-1 [4] it was 138%; in the assay on HCC1937, 84.1%; with MDA-MB-436 [5] it was 85.5%; in the assay on HDQ-P1 [6] it was 113%. The normalised response amounted to 100% in the assay with DU-4475; 102% with CAL-51; 105% in the assay with CAL-148 [7]; 80.9% in the assay with MDA-MB-453; 82.8% in the assay on Hs578T; 100% in the assay with CAL-120.

For the origin of these results see the supplement of paper PMC4862054.
